Measurements taken from PubChem BioAssay (NCI).
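Dose response: 5 concentrations. Exposure: 48 h. Format: 96-well plates. Endpoint: linear interpolation; highest concentration if not reached. Here, GI50 denotes the concentration required for 50% inhibition of growth. TGI marks complete inhibition of growth.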

Columns and labels:
Assay in all cases: NCI tumour cell line growth inhibition, 48 h
MOLT-4 leukemia = test system: MOLT-4 leukemia
A498 renal = test system: A498 renal
RPMI-8226 leukemia = test system: RPMI-8226 leukemia
OVCAR-5 ovarian = test system: OVCAR-5 ovarian
SK-MEL-5 melanoma = test system: SK-MEL-5 melanoma
HT29 colon = test system: HT29 colon
SF-268 CNS = test system: SF-268 CNS
UO-31 renal = test system: UO-31 renal
PC-3 prostate = test system: PC-3 prostate
HS 578T breast = test system: HS 578T breast

Compound	TGI (MOLT-4 leukemia)	TGI (A498 renal)	TGI (RPMI-8226 leukemia)	TGI (OVCAR-5 ovarian)	TGI (SK-MEL-5 melanoma)	TGI (HT29 colon)	TGI (SF-268 CNS)	TGI (UO-31 renal)	GI50 (OVCAR-5 ovarian)	GI50 (SK-MEL-5 melanoma)	GI50 (UO-31 renal)	TGI (PC-3 prostate)	TGI (HS 578T breast)	GI50 (PC-3 prostate)	GI50 (MOLT-4 leukemia)	GI50 (A498 renal)	GI50 (HT29 colon)	GI50 (SF-268 CNS)	GI50 (RPMI-8226 leukemia)	GI50 (HS 578T breast)
CCOC(=O)NC(=O)c1cn(C2OC(CO)C(O)C2O)c(=O)[nH]c1=O (stereo not given)	> 100 µM	> 100 µM	> 100 µM	> 100 µM	> 100 µM	> 100 µM	> 100 µM	> 100 µM	–	–	–	–	–	–	–	–	–	–	–	–
COC(=O)C12C3C4C1C1C2C3C41C(=O)N(C(C)C)C(C)C (stereo not given)	> 100 µM	> 100 µM	–	> 100 µM	> 100 µM	> 100 µM	> 100 µM	> 100 µM	–	–	–	–	–	–	–	–	–	–	–	–
CCC1(CC)C(=O)[N-]C(=O)[N-]C1=O.[Au+].[Au+].c1ccc([PH+](c2ccccc2)c2ccccc2)cc1.c1ccc([PH+](c2ccccc2)c2ccccc2)cc1	–	–	–	3.06 µM	2.26 µM	–	–	3.04 µM	1.68 µM	1.05 µM	1.65 µM	–	–	–	–	–	–	–	–	–
CCOC(=O)/C(C#N)=C(N)/C(=N\Nc1cccc(C(F)(F)F)c1)C(=O)OCC	> 100 µM	> 100 µM	> 100 µM	> 100 µM	> 100 µM	> 100 µM	> 100 µM	> 100 µM	–	–	–	–	–	–	–	–	–	–	–	–
O=C(O)c1oc2cccc3c2c1CCC3	> 100 µM	> 100 µM	> 100 µM	> 100 µM	> 100 µM	> 100 µM	> 100 µM	> 100 µM	–	–	–	–	–	–	–	–	–	–	–	–
O=C1NC(O)CCN1C1CC(O)C(CO)O1 (stereo not given)	> 100 µM	> 100 µM	> 100 µM	> 100 µM	> 100 µM	–	> 100 µM	> 100 µM	–	–	–	> 100 µM	> 100 µM	–	–	–	–	–	–	–
C(#Cc1ccccc1C#Cc1ccccn1)c1ccccn1	20.1 µM	34.6 µM	–	40.5 µM	30.9 µM	> 100 µM	35.7 µM	35.3 µM	17.2 µM	15.5 µM	16.4 µM	30.2 µM	–	13.5 µM	3.44 µM	18 µM	30.3 µM	17.7 µM	–	–
Cc1ccc(SCC(O)=C2C(=O)CCCC2=O)cc1	> 100 µM	–	> 100 µM	> 100 µM	> 100 µM	> 100 µM	> 100 µM	> 100 µM	–	–	–	–	–	–	–	–	–	–	–	–
Cc1cc(S(=O)(=O)Nc2nc3cc(-c4ccsc4)sc3c(=O)n2N)c(S)cc1Cl	> 100 µM	–	> 100 µM	> 100 µM	> 100 µM	> 100 µM	> 100 µM	> 100 µM	> 100 µM	38.4 µM	> 100 µM	> 100 µM	> 100 µM	47.6 µM	68 µM	–	30.4 µM	35.7 µM	> 100 µM	35.7 µM
CC(=O)NS(=O)(=O)c1ccc(-n2nc(-c3ccccc3)cc2C2=CC(=O)C=CC2=O)cc1	73.7 µM	–	–	> 100 µM	> 100 µM	> 100 µM	> 100 µM	> 100 µM	> 100 µM	44.2 µM	> 100 µM	> 100 µM	> 100 µM	> 100 µM	16.4 µM	–	> 100 µM	> 100 µM	–	22.3 µM
N[C@H](C(=O)O)[C@@H](Cl)CC(=O)O	> 100 µM	> 100 µM	> 100 µM	> 100 µM	> 100 µM	> 100 µM	> 100 µM	> 100 µM	–	–	–	–	–	–	–	–	–	–	–	–
N=C1C(c2nc(-c3ccc(Br)cc3)cs2)=C(O)CN1CC1CCCO1 (stereo not given)	> 100 µM	> 100 µM	> 100 µM	> 100 µM	> 100 µM	> 100 µM	> 100 µM	> 100 µM	> 100 µM	> 100 µM	> 100 µM	> 100 µM	–	> 100 µM	> 100 µM	> 100 µM	> 100 µM	> 100 µM	> 100 µM	–
CC(=O)O[C@H](C[C@H](C(C)C)N(C)C(=O)[C@@H](NC(=O)[C@H]1CCCCN1C)C(C)(C)C)c1nc(C(=O)N[C@@H](Cc2ccccc2)C[C@H](C)C(=O)O)cs1	> 25 µM	–	> 25 µM	> 25 µM	0.0057 µM	> 25 µM	> 25 µM	> 25 µM	< 0.0025 µM	< 0.0025 µM	0.0192 µM	> 25 µM	> 23.6 µM	< 0.0025 µM	< 0.0025 µM	–	< 0.0025 µM	0.00432 µM	< 0.0025 µM	< 0.0025 µM
CCCCCCCCCCCCCCC(O)C1CCC(C(O)CCC(O)CCCCCC(O)CC2=CC(C)OC2=O)O1 (stereo not given)	3.14 µM	20.5 µM	2.75 µM	20.3 µM	2.3 µM	8.68 µM	12.2 µM	6.78 µM	–	–	–	–	–	–	–	–	–	–	–	–
O=C1C2=C(c3ccccc31)C(c1ccc(Cl)cc1)NC(=S)N2 (stereo not given)	41.3 µM	> 100 µM	52.8 µM	> 100 µM	> 100 µM	90.7 µM	40.1 µM	35 µM	–	–	–	–	–	–	–	–	–	–	–	–
COc1cc(C(=O)C/C(CCC(=O)Nc2ccc(Cl)cc2Cl)=N/Nc2nnc(C)n2N)ccc1O	–	> 100 µM	> 100 µM	> 100 µM	> 100 µM	> 100 µM	> 100 µM	> 100 µM	–	–	–	–	–	–	–	–	–	–	–	–
CC(C)(O)CCC(O)C(C)(O)C1CCC2(O)C3=CC(=O)C4(O)CC(O)C(O)CC4(C)C3CCC12C (stereo not given) (tested in a mixture with another compound)	> 100 µM	> 100 µM	–	> 100 µM	> 100 µM	> 100 µM	> 100 µM	> 100 µM	–	–	–	> 100 µM	> 100 µM	–	–	–	–	–	–	–
O=c1cccccc1NCCNc1cccccc1=O	> 100 µM	–	> 100 µM	> 100 µM	–	> 100 µM	> 100 µM	> 100 µM	–	–	–	–	–	–	–	–	–	–	–	–
O=C(Nc1ccccc1C(=O)O)C(=O)C(C(=O)c1ccccc1-c1ccccc1)C1OC(=O)c2ccccc21 (stereo not given)	> 100 µM	35.3 µM	98.2 µM	42.2 µM	33.9 µM	65.9 µM	39.5 µM	32.5 µM	–	–	–	–	–	–	–	–	–	–	–	–
C[C@@H](c1ccccc1)N(CC#N)C1CCC[C@H]1O (stereo not given in full)	> 100 µM	> 100 µM	> 100 µM	–	> 100 µM	> 100 µM	> 100 µM	> 100 µM	–	–	–	–	–	–	–	–	–	–	–	–
